biological target: GLP-1 Receptor (Homo sapiens, UniProt P43220); test: GLP-1R agonist cAMP stimulation assay (HEK293/GLP1R/CRE-LUC cells, cAMP dynamic 2 kit); format: cell-based; conditions: HEK293/CRE-Luc cell line stably expressing the GLP-1 Receptor; 30 min incubation at 37° C.; read-out: GLP1R cAMP Stimulation DR: EC50
Summary of the method: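 HEK293/CRE-Luc cells stably expressing human GLP-1R stimulated 30 min at 37 °C, 5% CO2. cAMP detected with HTRF cAMP-d2/anti-cAMP cryptate reagents after 1 h at room temperature; % activity normalised between vehicle and maximal control.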

Sequence of GLP-1 Receptor (P43220 24-463, species assumed): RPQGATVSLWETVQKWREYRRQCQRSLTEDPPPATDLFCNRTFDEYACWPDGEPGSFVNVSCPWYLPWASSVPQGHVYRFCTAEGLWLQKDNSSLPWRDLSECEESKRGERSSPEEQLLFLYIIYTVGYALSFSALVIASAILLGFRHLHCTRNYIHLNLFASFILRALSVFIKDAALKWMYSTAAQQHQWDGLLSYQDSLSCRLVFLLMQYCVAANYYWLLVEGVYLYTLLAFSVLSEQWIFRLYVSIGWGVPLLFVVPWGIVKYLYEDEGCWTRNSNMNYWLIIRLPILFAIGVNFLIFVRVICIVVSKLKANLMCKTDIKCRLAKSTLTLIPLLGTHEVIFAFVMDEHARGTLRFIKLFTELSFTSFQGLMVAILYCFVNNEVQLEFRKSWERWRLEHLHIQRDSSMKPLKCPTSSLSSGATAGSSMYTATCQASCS

| EC50 | SMILES |
| --- | --- |
| 0.47 nM | O=C(O)c1ccc2nc(CN3CCC(n4ncc5ccc(Cc6ccc(Cl)cc6F)nc54)CC3)n(C[C@@H]3CCO3)c2n1 [Compound 185a, 2-[(4-{6-[(4-chloro-2-fluorophenyl)methyl]-1H-pyrazolo[3,4-b]pyridin-1-yl}piperidin-1-yl)methyl]-3-{[(2S)-oxetan-2-yl]methyl}-3H-imidazo[4,5-b]pyridine-5-carboxylic acid] |
| 0.6 nM | O=C(O)c1ccc2nc(Cc3ccc(Oc4ccnc(Cc5ccc(Cl)cc5)n4)cc3)n(C[C@@H]3CCO3)c2n1 [Compound 186a, 2-{[4-({2-[(4-chlorophenyl)methyl]pyrimidin-4-yl}oxy)phenyl]methyl}-3-{[(2S)-oxetan-2-yl]methyl}-3H-imidazo[4,5-b]pyridine-5-carboxylic acid] |
| 1.3 nM | O=C(O)c1ccc2nc(Cc3ccc(Oc4ccnc(Cc5ccc(Cl)cc5)n4)cc3)n(C[C@@H]3CCO3)c2c1 [Compound 187a, 2-{[4-({2-[(4-chlorophenyl)methyl]pyrimidin-4-yl}oxy)phenyl]methyl}-1-{[(2S)-oxetan-2-yl]methyl}-1H-1,3-benzodiazole-6-carboxylic acid] |
| 0.045 nM | O=C(O)c1ccc2nc(C[C@H]3CC[C@H](Oc4nc(Cc5ccc(Cl)cc5)ncc4F)CC3)n(C[C@@H]3CCO3)c2n1 [Compound 188a, 3-{[(2S)-oxetan-2-yl]methyl}-2-{[trans-4-({2-[(4-chlorophenyl)methyl]-5-fluoropyrimidin-4-yl}oxy)cyclohexyl]methyl}-3H-imidazo[4,5-b]pyridine-5-carboxylic acid] |
| 0.69 nM | O=C(O)c1ccc2nc(Cc3ccc(Oc4nc(Cc5ccc(Cl)cc5)ncc4F)cc3)n(C[C@@H]3CCO3)c2n1 [Compound 189a, 2-{[4-({2-[(4-chlorophenyl)methyl]-5-fluoropyrimidin-4-yl}oxy)phenyl]methyl}-3-{[(2S)-oxetan-2-yl]methyl}-3H-imidazo[4,5-b]pyridine-5-carboxylic acid] |
| 0.41 nM | O=C(O)c1ccc2nc(Cc3ccc(Oc4nc(Cc5ccc(Cl)cc5)ncc4F)cc3F)n(C[C@@H]3CCO3)c2n1 [Compound 190a, 2-{[4-({2-[(4-chlorophenyl)methyl]-5-fluoropyrimidin-4-yl}oxy)-2-fluorophenyl]methyl}-3-{[(2S)-oxetan-2-yl]methyl}-3H-imidazo[4,5-b]pyridine-5-carboxylic acid] |
| 0.29 nM | O=C(O)c1ccc2nc(Cc3ccc(Oc4nc(Cc5ccc(Cl)cc5)ncc4F)cc3F)n(C[C@@H]3CCO3)c2c1 [Compound 191a, 2-{[4-({2-[(4-chlorophenyl)methyl]-5-fluoropyrimidin-4-yl}oxy)-2-fluorophenyl]methyl}-1-{[(2S)-oxetan-2-yl]methyl}-1H-1,3-benzodiazole-6-carboxylic acid] |
| 130 nM | O=C(O)c1ccc2nc(CN3CC=C(c4cnc5ccc(Cc6ccc(Cl)cc6F)nn45)CC3)n(C[C@@H]3CCO3)c2n1 [Compound 192a, 2-[(4-{6-[(4-chloro-2-fluorophenyl)methyl]imidazo[1,2-b]pyridazin-3-yl}-1,2,3,6-tetrahydropyridin-1-yl)methyl]-3-{[(2S)-oxetan-2-yl]methyl}-3H-imidazo[4,5-b]pyridine-5-carboxylic acid] |
| 0.19 nM | O=C(O)c1ccc2nc(CN3CCC(Oc4ccnc(Cc5ccc(Cl)cc5)n4)CC3)n(Cc3cn[nH]c3)c2n1 [Compound 193, 3-((1H-pyrazol-4-yl)methyl)-2-((4-((2-(4-chlorobenzyl)pyrimidin-4-yl)oxy)piperidin-1-yl)methyl)-3H-imidazo[4,5-b]pyridine-5-carboxylic acid] |
| 2.9 nM | CCOCCn1c(CN2CCC(Oc3ccnc(Cc4ccc(Cl)cc4)n3)CC2)nc2ccc(C(=O)O)nc21 [Compound 194, 2-((4-((2-(4-chlorobenzyl)pyrimidin-4-yl)oxy)piperidin-1-yl)methyl)-3-(2-ethoxyethyl)-3H-imidazo[4,5-b]pyridine-5-carboxylic acid] |
| 0.6 nM | COC(C)Cn1c(CN2CCC(Oc3ccnc(Cc4ccc(Cl)cc4)n3)CC2)nc2ccc(C(=O)O)nc21 (stereo not drawn) [Compound 195, 2-((4-((2-(4-chlorobenzyl)pyrimidin-4-yl)oxy)piperidin-1-yl)methyl)-3-(2-methoxypropyl)-3H-imidazo[4,5-b]pyridine-5-carboxylic acid] |
| 1.3 nM | O=C(O)c1ccc2nc(CN3CCC(Oc4ccnc(Cc5ccc(Cl)cc5)n4)CC3)n(C[C@H]3CCOC3)c2n1 [Compound 196a, (R)-2-((4-((2-(4-chlorobenzyl)pyrimidin-4-yl)oxy)piperidin-1-yl)methyl)-3-((tetrahydrofuran-3-yl)methyl)-3H-imidazo[4,5-b]pyridine-5-carboxylic acid] |
| 2.5 nM | O=C(O)c1ccc2nc(CN3CCC(Oc4nc(Cc5ccc(Cl)cc5)ncc4F)CC3)n(C[C@H]3CCOC3)c2n1 [Compound 197a, (R)-2-((4-((2-(4-chlorobenzyl)-5-fluoropyrimidin-4-yl)oxy)piperidin-1-yl)methyl)-3-((tetrahydrofuran-3-yl)methyl)-3H-imidazo[4,5-b]pyridine-5-carboxylic acid] |
| 0.7 nM | O=c1[nH]c(-c2ccc3nc(CN4CCC(Oc5ccnc(Cc6ccc(Cl)cc6)n5)CC4)n(C[C@@H]4CCO4)c3n2)no1 [Compound 198a, (S)-3-(2-((4-((2-(4-chlorobenzyl)pyrimidin-4-yl)oxy)piperidin-1-yl)methyl)-3-(oxetan-2-ylmethyl)-3H-imidazo[4,5-b]pyridin-5-yl)-1,2,4-oxadiazol-5(4H)-one] |
| 0.95 nM | Clc1ccc(Cc2nccc(OC3CCN(Cc4nc5ccc(-c6nnn[nH]6)nc5n4C[C@@H]4CCO4)CC3)n2)cc1 [Compound 199a, (S)-2-((4-((2-(4-chlorobenzyl)pyrimidin-4-yl)oxy)piperidin-1-yl)methyl)-3-(oxetan-2-ylmethyl)-5-(1H-tetrazol-5-yl)-3H-imidazo[4,5-b]pyridine] |
| 85 nM | NC(=O)c1ccc2nc(CN3CCC(Oc4ccnc(Cc5ccc(Cl)cc5)n4)CC3)n(C[C@@H]3CCO3)c2n1 [Compound 200a, (S)-2-((4-((2-(4-chlorobenzyl)pyrimidin-4-yl)oxy)piperidin-1-yl)methyl)-3-(oxetan-2-ylmethyl)-3H-imidazo[4,5-b]pyridine-5-carboxamide] |
| 360 nM | O=C(O)c1ccc2nc(CN3CC4CC(Oc5ccnc(Cc6ccc(Cl)cc6)n5)CC4C3)n(C[C@@H]3CCO3)c2n1 (stereo partly drawn) [Compound 201a, 2-{[5-({2-[(4-chlorophenyl)methyl]pyrimidin-4-yl}oxy)-octahydrocyclopenta[c]pyrrol-2-yl]methyl}-3-{[(2S)-oxetan-2-yl]methyl}-3H-imidazo[4,5-b]pyridine-5-carboxylic acid] |

same assay, conditions: HEK293/CRE-Luc cell line stably expressing the GLP-1 Receptor; 30 min incubation at 37° C.; read-out: GLP1R cAMP Stimulation DR: pEC50 (converted)

| EC50 | SMILES |
| --- | --- |
| 1 nM | Clc1ccc(Cc2nccc(OC3CCN(Cc4nc5ccc(-c6nnn[nH]6)nc5n4C[C@@H]4CCO4)CC3)n2)cc1 [Compound 199a, (S)-2-((4-((2-(4-chlorobenzyl)pyrimidin-4-yl)oxy)piperidin-1-yl)methyl)-3-(oxetan-2-ylmethyl)-5-(1H-tetrazol-5-yl)-3H-imidazo[4,5-b]pyridine] |
